Reference: patent US20050171116A1, “Enhancing the efficacy of tubercular drugs” (priority 2004, published 2005)

Assays:
Assay type in all cases: cell-based, Mycobacterium Tuberculosis
Settings in all cases: LJ medium, in vitro
[1] = tested on: Rifampicin-resistant strains of MTB
[2] = tested on: Isoniazid-Resistant strains of MTB
[3] = tested on: Multi-Drug-Resistant strains of MTB

Measured: antibacterial efficacy

Cc1c(C)c2c(c(C)c1O)CC[C@@](C)(CCC[C@H](C)CCC[C@H](C)CCCC(C)C)O2 [Factor Alpha tx, α-tocopherol]
effective: all assays above
